Where a SMILES comes first, the peptide text is derived from it. Where no end group is shown, it is not given here. The star is where a group is joined. X1 = Nc1ccn([C@@H]2O[C@H](COC(=O)CCC(=O)*)[C@@H](O)C2(F)F)c(=O)n1
Columns and labels:
A549 cells [1] = experiment: Antitumor activity of free gemcitabine and Gem-CPP conjugates by MTT test; details: for cell viability: 72 h incubation, 10 % FBS; for cell viability / cytotoxicity in comparison to the free drug: 72 h, 15 and 25 µM where stated
Procedure: (§1) A549 lung carcinoma cell line was obtained from the Pasteur Institute (Iran). Cells were maintained in RPMI 1640 medium supplemented with 10 % FBS, 100 units/ml penicillin, and 100 μg/ml streptomycin and grown at 37 °C in a 5 % CO2 humidified atmosphere.
(§2) A549 cells were seeded into 96-well plates at a density of 1.5 × 10^4 cells/well and pre-incubated for 24 h. The next day, different concentrations of peptides were added to the culture medium. Cells were incubated at 37 °C for 72 h. The medium was removed and the wells were washed with PBS. The MTT assay was performed by introducing 50 μl of 2 mg/ml MTT to each well for 4 h. The culture media aspirated and then resulting formazan crystals were dissolved in DMSO and the absorbance of individual wells was obtained at 570 nm. Untreated cells were defined as 100 % viable.
The antitumor activity of free gemcitabine and its conjugates with CPPs (Gem-CPP) was investigated using MTT test after incubation for 72 h. The activity of drug-peptide conjugates i.e. Gem-R5W3R4, Gem-[RW]6, Gem-[RW]5, Gem-[RW]4 and Gem-[WR]3, was evaluated and compared with that of the free drug (Figure 6(Fig. 6)).
Figure 6 Toxicity of Gem-R5W3R4 (A), Gem-[RW]6 (B), Gem-[RW5] (C), Gem-[RW]4 (D), Gem-[RW]3 (E) and Gem to A549 cells. The cells were incubated for 3 days in 10 % FBS with or without peptides and analyzed for proliferation by MTT assay.

A549 cells [2] = experiment: Flow cytometry of cellular uptake of FITC-labeled peptides; assay type: cell-based; details: FITC-labeled peptide, 1.5 h at 37 °C, trypsin treatment to remove surface-bound peptide, FACSCalibur
Procedure: A549 cells were seeded with RMPI 1640 medium in 6-well plates (3×10^5 cells/well) 24 h prior to the experiment. After 24 h, the medium was removed and washed with PBS. Then FITC-labeled peptide was added to the cells. The plates were incubated for 1.5 h at 37 °C. After that, the medium containing the peptide was removed. The cells were washed three times with PBS and detached with 0.25 % trypsin/EDTA (0.53 mM) for 5 min. To each well, 2 ml of the medium was added and centrifuged for 4 min. Cells were washed twice with PBS and finally were re-suspended in flow cytometry buffer and analyzed by FACSCalibur (Becton Dickinson, San Jose, CA, USA).
Flow cytometry was used to determine the relative amounts of internalized peptide after 1.5 h incubation at 37 °C. After the incubation, cells were treated with trypsin to remove the cell surface-bound peptides. […] The percentage of cell fluorescence was increased with increasing peptides concentration. This effect was nearly linear for the tested concentrations. There was an increase in fluorescence intensity of cells treated with peptides of higher amino acid content.
Figure 5 Cellular uptake of FITC-labeled peptides in live A549 cells after incubation. The uptake was measured as the relative fraction of positive cells (%) from flow cytometry analysis of all living cells positive for the fluorophore.

A549 cells [3] = experiment: Cytotoxicity of blank CPPs by MTT assay; details: 72 h peptide exposure
Procedure: as §1, §2

A549 cells [4] = experiment: Fluorescent microscopy of uptake and intracellular localization of FITC-labeled peptides; assay type: cell-based; details: FITC-labeled peptide, 25 µM, 1.5 h at 37 °C, live A549 cells, fluorescence read-out
Procedure: The cellular uptake of the FITC-labeled peptide was examined in A549 cell line. A549 cells were seeded with RPMI 1640 medium on coverslips in 6-well plates and allowed to adhere overnight. Then the medium was removed and washed with PBS. The cells were treated with FITC-labeled peptide for 1.5 h at 37 °C. After incubation, the media containing the compound were removed and the cells were washed with PBS three times. Coverslips were placed on a microscope slide (Olympus IX81 fluorescence microscope, Olympus Optical Co., Ltd., Tokyo, Japan).
The uptake and intracellular localization of FITC-labeled peptides were examined by fluorescent microscopy. […] The uptake of all peptides was examined at the concentration of 25 µM.
Figure 4 Fluorescence microscopy, visualization of FITC-labeled, R5W3R4 (A, B), [RW]6 (C, D), [RW]5 (E, F), [RW]4 (G, H), and [RW]3 (I, J) in A459 cells. The top photos show fluorescence microscopy and the bottom bright field of A459 cells. Live cells were treated with 25 µm of peptides for 1.5 h at 37 °C. Control cells were incubated in RPMI medium without the peptides.

Q: What does the source list for Nc1ccn([C@@H]2O[C@H](CO)[C@@H](O)C2(F)F)c(=O)n1 [Free drug, Gemcitabine]?
A: cell viability (A549 cells [1]; 15 µM): 20%; cell viability (A549 cells [1]; 25 µM): 20%

Q: N=C(N)NCCC[C@H](NC(=O)[C@H](CCCNC(=N)N)NC(=O)[C@H](CCCNC(=N)N)NC(=O)[C@H](CCCNC(=N)N)NC(=O)[C@H](Cc1c[nH]c2ccccc12)NC(=O)[C@H](Cc1c[nH]c2ccccc12)NC(=O)[C@H](Cc1c[nH]c2ccccc12)NC(=O)[C@H](CCCNC(=N)N)NC(=O)[C@H](CCCNC(=N)N)NC(=O)[C@H](CCCNC(=N)N)NC(=O)[C@H](CCCNC(=N)N)NC(=O)[C@H](CCCNC(=N)N)NC(=O)CCC(=O)OC[C@H]1O[C@@H](n2ccc(N)nc2=O)C(F)(F)[C@@H]1O)C(N)=O [Gem-R5W3R4] (X1-RRRRRWWWRRRR-NH2) was tested. Which “cell viability / cytotoxicity in comparison to the free drug” value (A549 cells [1]) did it give?
A: decreased cell viability

Q: For N=C(N)NCCC[C@H](NC(=O)CCC(=O)OC[C@H]1O[C@@H](n2ccc(N)nc2=O)C(F)(F)[C@@H]1O)C(=O)N[C@@H](Cc1c[nH]c2ccccc12)C(=O)N[C@@H](CCCNC(=N)N)C(=O)N[C@@H](Cc1c[nH]c2ccccc12)C(=O)N[C@@H](CCCNC(=N)N)C(=O)N[C@@H](Cc1c[nH]c2ccccc12)C(=O)N[C@@H](CCCNC(=N)N)C(=O)N[C@@H](Cc1c[nH]c2ccccc12)C(=O)N[C@@H](CCCNC(=N)N)C(=O)N[C@@H](Cc1c[nH]c2ccccc12)C(=O)N[C@@H](CCCNC(=N)N)C(=O)N[C@@H](Cc1c[nH]c2ccccc12)C(N)=O [Gem-[RW]6], which “cell viability / cytotoxicity in comparison to the free drug” value (A549 cells [1]) is on record?
A: decreased cell viability

Q: Which “intracellular fluorescence, relative fraction of positive cells (flow cytometry)” value (A549 cells [2]) does the source give for RRRRRWWWRRRR-NH2 [R5W3R4] here?
A: maximum intracellular fluorescence

Q: What about the cell toxicity value (A549 cells [3]; 25 µM) of the same compound?
A: 9%

Q: What about the cell death (A549 cells [3]; 50 µM) of the same compound?
A: 28%

Q: And the “intracellular distribution (fluorescent microscopy)” value (A549 cells [4])?
A: homogeneous staining throughout the intracellular space
